Reference: patent US8372857B2, “Substituted 4-hydroxypyrimidine-5-carboxamides” (Merck Sharp & Dohme Corp., priority 2009, dated 2013)

Legend:
[1] = Pharmacokinetics after intravenous dosing in dogs (plasma concentration by LC-MS/MS); format: in vivo; conditions: beagle, dog, dogs (beagles), 0.5 mg/kg intravenous
Method: The pharmacokinetics and cytochrome P450 activity of Example 1 (E-1) were evaluated, and compared to that of Example 187 disclosed in International PCT application PCT/US09/036,501, filed Mar. 9, 2009. Compounds were formulated in a 1:1 solution (by volume) of PEG200: water and dosed at 0.5 mg/kg of body weight. The formulation was dosed intravenously in 2 dogs (beagles), and blood was drawn at the following time points (hours) 0.08, 0.25, 0.5, 1, 2, 4, 6, 8, 24. The plasma concentrations shown in the table below were determined by protein precipitation followed by liquid chromatography—tandem mass spectrometry analysis.

[2] = target: CYP3A4 (Homo sapiens, UniProt P08684); test: Cytochrome P450 inhibition, CYP3A4; format: in vitro ADME
Sequence of CYP3A4 (P08684 whole entry): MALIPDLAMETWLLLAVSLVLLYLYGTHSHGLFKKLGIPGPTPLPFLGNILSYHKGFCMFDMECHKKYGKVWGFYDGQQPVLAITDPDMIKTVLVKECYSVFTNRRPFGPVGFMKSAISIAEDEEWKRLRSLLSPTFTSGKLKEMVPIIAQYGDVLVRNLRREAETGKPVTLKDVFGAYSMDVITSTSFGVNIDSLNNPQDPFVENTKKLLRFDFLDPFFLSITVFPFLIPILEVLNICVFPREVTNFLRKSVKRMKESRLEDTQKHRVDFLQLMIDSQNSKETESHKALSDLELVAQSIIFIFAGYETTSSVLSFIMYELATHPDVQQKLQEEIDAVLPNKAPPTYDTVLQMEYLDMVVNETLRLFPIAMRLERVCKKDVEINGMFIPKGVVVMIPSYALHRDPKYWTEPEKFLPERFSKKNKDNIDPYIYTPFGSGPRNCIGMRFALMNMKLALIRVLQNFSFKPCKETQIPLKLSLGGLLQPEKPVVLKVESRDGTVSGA
Method: (§1) The compounds of Example 1 and also Example 187 of PCT/US09/036,501 were tested for their activity at the cytochrome P450 enzymes CYP3A4 and CYP2C8. Utilizing procedures similar to that described by Walasky et al. and the references therein, the following human IC50 values were determined (Walsky, R. L.; Obach, R. S. Drug Metab. Dispos. 2004, 32, 647-660.)

[3] = target: T1, CYP2C8 (Homo sapiens, UniProt P10632); test: Cytochrome P450 inhibition, CYP2C8; format: in vitro ADME
T1 sequence (P10632 1-490): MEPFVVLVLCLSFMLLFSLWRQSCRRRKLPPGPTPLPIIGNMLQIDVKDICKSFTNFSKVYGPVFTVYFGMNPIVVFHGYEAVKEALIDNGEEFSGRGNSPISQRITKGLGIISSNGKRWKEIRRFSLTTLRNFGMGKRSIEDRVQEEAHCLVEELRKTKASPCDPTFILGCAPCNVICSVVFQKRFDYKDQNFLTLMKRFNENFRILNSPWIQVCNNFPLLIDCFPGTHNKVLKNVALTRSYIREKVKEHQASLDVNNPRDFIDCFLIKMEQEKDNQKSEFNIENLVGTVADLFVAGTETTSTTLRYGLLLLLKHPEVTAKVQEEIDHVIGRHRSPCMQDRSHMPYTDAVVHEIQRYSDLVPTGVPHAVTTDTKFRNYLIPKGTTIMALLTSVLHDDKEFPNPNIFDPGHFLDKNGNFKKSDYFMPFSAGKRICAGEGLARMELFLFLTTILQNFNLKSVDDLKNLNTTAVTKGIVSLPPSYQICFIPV
Method: as §1

[4] = target: T2, PHD2 (Homo sapiens, UniProt Q9GZT9); test: PHD2 / HIF-1α peptide time resolved fluorescence assay; format: biochemical
T2 construct: FLAG-tagged full length PHD2 expressed in and purified from baculovirus-infected Sf9 cells; FLAG; made in house; host or cells: baculovirus-infected Sf9 cells
T2 sequence (Q9GZT9 whole entry): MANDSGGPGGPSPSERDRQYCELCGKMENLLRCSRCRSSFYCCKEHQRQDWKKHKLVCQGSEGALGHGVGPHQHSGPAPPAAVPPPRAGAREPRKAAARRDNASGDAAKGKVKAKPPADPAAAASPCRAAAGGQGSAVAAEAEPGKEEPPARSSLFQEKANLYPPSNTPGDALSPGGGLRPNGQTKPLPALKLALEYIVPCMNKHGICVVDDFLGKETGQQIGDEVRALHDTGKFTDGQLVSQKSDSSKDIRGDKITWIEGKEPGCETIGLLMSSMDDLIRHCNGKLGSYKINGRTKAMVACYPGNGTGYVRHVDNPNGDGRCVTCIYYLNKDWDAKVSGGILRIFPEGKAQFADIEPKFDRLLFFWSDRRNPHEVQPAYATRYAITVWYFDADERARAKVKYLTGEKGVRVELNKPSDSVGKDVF
Method: To each well of a 96-well plate was added 1 μL of test compound in DMSO and 20 μl of assay buffer (50 mM Tris pH 7.4/0.01% Tween-20/0.1 mg/ml bovine serum albumin/10 μM ferrous sulfate/1 mM sodium ascorbate/20 μg/ml catalase) containing 0.15 μg/ml FLAG-tagged full length PHD2 expressed in and purified from baculovirus-infected Sf9 cells. After a 30 min preincubation at room temperature, the enzymatic reactions were initiated by the addition of 4 μL of substrates (final concentrations of 0.2 μM 2-oxoglutarate and 0.5 μM HIF-1α peptide biotinyl-DLDLEMLAPYIPMDDDFQL). After 2 hr at room temperature, the reactions were terminated and signals were developed by the addition of a 25 μL quench/detection mix to a final concentration of 1 mM ortho-phenanthroline, 0.1 mM EDTA, 0.5 nM anti-(His)6 LANCE reagent (Perkin-Elmer Life Sciences), 100 nM AF647-labeled streptavidin (Invitrogen), and 2 μg/ml (His)-6-VIAL complex (S. Tan(2001) Protein Expr. Purif. 21, 224-234). The ratio of time resolved fluorescence signals at 665 and 620 nm was determined, and percent inhibition was calculated relative to an uninhibited control sample run in parallel.

MRT [1]: 6.57 h | clearance [1]: 2.49 mL/min/kg | concentration at 0.08 h ([1]; 0.08 hours): 1500 nM | concentration at 0.25 h ([1]; 0.25 hours): 1150 nM | concentration at 0.5 h ([1]; 0.50 hours): 1110 nM | concentration at 1 h ([1]; 1.00 hours): 944 nM | concentration at 2 h ([1]; 2.00 hours): 754 nM | concentration at 4 h ([1]; 4.00 hours): 581 nM | concentration at 6 h ([1]; 6.00 hours): 374 nM | concentration at 8 h ([1]; 8.00 hours): 475 nM | concentration at 24 h ([1]; 24.00 hours): 23 nM | half-life ([1]; read-out: T ½ (converted)): 4.09 h | IC50 [2]: > 50 µM | IC50 [3]: 49.5 µM | IC50, inhibition of the interaction between PHD2 and a HIF peptide ([4]; general range statement, units within the value): 0.0001 to 10 µM | IC50 ([4]; read-out: PHD2 binding activity expressed as IC50): ≤ 0.01 µM
Structure (SMILES): COc1ccc(-c2ccc(C(C)(C)NC(=O)c3cnc(-c4cccnn4)nc3O)cn2)cc1 [Example 1, 4-Hydroxy-N-{1-[6-(4-methoxyphenyl)pyridin-3-yl]-1-methylethyl}-2-pyridazin-3-ylpyrimidine-5-carboxamide]
